Measured values as given in ChEMBL document CHEMBL4371049, “Semi-synthesis and anti-tumor activity of novel 25-OCH3-PPD derivatives incorporating aromatic moiety” (Bioorg Med Chem Lett, 2019).

Experiments:
Assay type in all cases: functional, cell-based
BGC-823 = experiment: Antiproliferative activity against human BGC823 cells after 48 hrs by MTT assay; conditions: BGC-823, 48 h
PC-3 = experiment: Antiproliferative activity against human PC3 cells after 48 hrs by MTT assay; conditions: PC-3, 48 h
MCF7 = experiment: Antiproliferative activity against human MCF7 cells after 48 hrs by MTT assay; conditions: MCF7, 48 h
DU-145 = experiment: Antiproliferative activity against human DU145 cells after 48 hrs by MTT assay; conditions: DU-145, 48 h
HepG2 = experiment: Antiproliferative activity against human HepG2 cells after 48 hrs by MTT assay; conditions: HepG2, 48 h

## O=c1[nH]cc(F)c(=O)[nH]1 [FLUOROURACIL]
BGC-823
  IC50: 24.8 µM
PC-3
  IC50: 23.1 µM
MCF7
  IC50: 22.6 µM
DU-145
  IC50: 25.3 µM

## COC(C)(C)CCC[C@@](C)(O)[C@H]1CC[C@]2(C)[C@@H]1[C@H](O)C[C@@H]1[C@@]3(C)CC[C@H](OC(=O)c4ccccc4)C(C)(C)[C@@H]3CC[C@]12C
BGC-823
  IC50: 35.1 µM
HepG2
  IC50: 17.8 µM
PC-3
  IC50: 30.4 µM
MCF7
  IC50: 18.9 µM
DU-145
  IC50: 23.5 µM

## COC(C)(C)CCC[C@@](C)(O)[C@H]1CC[C@]2(C)[C@@H]1[C@H](OC(=O)c1ccc(Br)cc1)C[C@@H]1[C@@]3(C)CC[C@H](O)C(C)(C)[C@@H]3CC[C@]12C
BGC-823
  IC50: > 50 µM
HepG2
  IC50: > 50 µM
PC-3
  IC50: > 50 µM
MCF7
  IC50: > 50 µM
DU-145
  IC50: > 50 µM

## COC(C)(C)CCC[C@@](C)(O)[C@H]1CC[C@]2(C)[C@@H]1[C@H](O)C[C@@H]1[C@@]3(C)CC[C@H](OC(=O)c4ccc(Br)cc4)C(C)(C)[C@@H]3CC[C@]12C
BGC-823
  IC50: 26.2 µM
HepG2
  IC50: 25.7 µM
PC-3
  IC50: 35.7 µM
MCF7
  IC50: 17.6 µM
DU-145
  IC50: 23.1 µM

## COC(C)(C)CCC[C@@](C)(O)[C@H]1CC[C@]2(C)[C@@H]1[C@H](OC(=O)c1cc(I)ccc1Cl)C[C@@H]1[C@@]3(C)CC[C@H](OC(=O)c4cc(I)ccc4Cl)C(C)(C)[C@@H]3CC[C@]12C
BGC-823
  IC50: > 50 µM
HepG2
  IC50: > 50 µM
PC-3
  IC50: > 50 µM
MCF7
  IC50: > 50 µM
DU-145
  IC50: > 50 µM

## COC(C)(C)CCC[C@@](C)(O)[C@H]1CC[C@]2(C)[C@@H]1[C@H](O)C[C@@H]1[C@@]3(C)CC[C@H](OC(=O)c4ccc(F)cc4F)C(C)(C)[C@@H]3CC[C@]12C
BGC-823
  IC50: 7.1 µM
HepG2
  IC50: 5.8 µM
PC-3
  IC50: 11.4 µM
MCF7
  IC50: 4.3 µM
DU-145
  IC50: 6.7 µM

## COC(C)(C)CCC[C@@](C)(O)[C@H]1CC[C@]2(C)[C@@H]1[C@H](O)C[C@@H]1[C@@]3(C)CC[C@H](OC(=O)c4ccccc4I)C(C)(C)[C@@H]3CC[C@]12C
BGC-823
  IC50: 28.7 µM
HepG2
  IC50: 39.2 µM
PC-3
  IC50: 46.5 µM
MCF7
  IC50: 33.4 µM
DU-145
  IC50: 28.1 µM

## COC(C)(C)CCC[C@@](C)(O)[C@H]1CC[C@]2(C)[C@@H]1[C@H](O)C[C@@H]1[C@@]3(C)CC[C@H](OC(=O)c4cc(C)cc(C)c4)C(C)(C)[C@@H]3CC[C@]12C
BGC-823
  IC50: > 50 µM
HepG2
  IC50: > 50 µM
PC-3
  IC50: > 50 µM
MCF7
  IC50: 48.2 µM
DU-145
  IC50: > 50 µM

## COC(C)(C)CCC[C@@](C)(O)[C@H]1CC[C@]2(C)[C@@H]1[C@H](O)C[C@@H]1[C@@]3(C)CC[C@H](OC(=O)/C=C/c4ccc(Cl)cc4)C(C)(C)[C@@H]3CC[C@]12C
BGC-823
  IC50: 25.8 µM
HepG2
  IC50: 26.7 µM
PC-3
  IC50: 23.5 µM
MCF7
  IC50: 20.8 µM
DU-145
  IC50: 33.1 µM

## COC(C)(C)CCC[C@@](C)(O)[C@H]1CC[C@]2(C)[C@@H]1[C@H](OC(=O)c1cc([N+](=O)[O-])cc([N+](=O)[O-])c1)C[C@@H]1[C@@]3(C)CC[C@H](O)C(C)(C)[C@@H]3CC[C@]12C
BGC-823
  IC50: > 50 µM
HepG2
  IC50: > 50 µM
PC-3
  IC50: > 50 µM
MCF7
  IC50: > 50 µM
DU-145
  IC50: > 50 µM

## COC(C)(C)CCC[C@@](C)(O)[C@H]1CC[C@]2(C)[C@@H]1[C@H](OC(=O)c1ccc(I)cc1)C[C@@H]1[C@@]3(C)CC[C@H](OC(=O)c4ccc(I)cc4)C(C)(C)[C@@H]3CC[C@]12C
BGC-823
  IC50: > 50 µM
HepG2
  IC50: > 50 µM
PC-3
  IC50: > 50 µM
MCF7
  IC50: > 50 µM
DU-145
  IC50: > 50 µM

## COC(C)(C)CCC[C@@](C)(O)[C@H]1CC[C@]2(C)[C@@H]1[C@H](OC(=O)/C=C/c1ccccc1)C[C@@H]1[C@@]3(C)CC[C@H](O)C(C)(C)[C@@H]3CC[C@]12C
BGC-823
  IC50: > 50 µM
HepG2
  IC50: > 50 µM
PC-3
  IC50: > 50 µM
MCF7
  IC50: > 50 µM
DU-145
  IC50: > 50 µM

## COC(C)(C)CCC[C@@](C)(O)[C@H]1CC[C@]2(C)[C@@H]1[C@H](O)C[C@@H]1[C@@]3(C)CC[C@H](OC(=O)c4cccc(F)c4)C(C)(C)[C@@H]3CC[C@]12C
BGC-823
  IC50: 5.3 µM
HepG2
  IC50: 10.3 µM
PC-3
  IC50: 13.5 µM
MCF7
  IC50: 6.4 µM
DU-145
  IC50: 8.6 µM

## COC(C)(C)CCC[C@@](C)(O)[C@H]1CC[C@]2(C)[C@@H]1[C@H](OC(=O)c1ccc([N+](=O)[O-])cc1)C[C@@H]1[C@@]3(C)CC[C@H](OC(=O)c4ccc([N+](=O)[O-])cc4)C(C)(C)[C@@H]3CC[C@]12C
BGC-823
  IC50: > 50 µM
HepG2
  IC50: > 50 µM
PC-3
  IC50: > 50 µM
MCF7
  IC50: > 50 µM
DU-145
  IC50: > 50 µM

## COC(C)(C)CCC[C@@](C)(O)[C@H]1CC[C@]2(C)[C@@H]1[C@H](O)C[C@@H]1[C@@]3(C)CC[C@H](OC(=O)c4cc(I)ccc4Cl)C(C)(C)[C@@H]3CC[C@]12C
BGC-823
  IC50: > 50 µM
HepG2
  IC50: 28.8 µM
PC-3
  IC50: > 50 µM
MCF7
  IC50: 29.4 µM
DU-145
  IC50: 30.7 µM

## COC(C)(C)CCC[C@@](C)(O)[C@H]1CC[C@]2(C)[C@@H]1[C@H](OC(=O)c1ccccc1)C[C@@H]1[C@@]3(C)CC[C@H](O)C(C)(C)[C@@H]3CC[C@]12C
BGC-823
  IC50: > 50 µM
HepG2
  IC50: > 50 µM
PC-3
  IC50: > 50 µM
MCF7
  IC50: > 50 µM
DU-145
  IC50: > 50 µM

## COC(C)(C)CCC[C@@](C)(O)[C@H]1CC[C@]2(C)[C@@H]1[C@H](OC(=O)/C=C/c1ccccc1)C[C@@H]1[C@@]3(C)CC[C@H](OC(=O)/C=C/c4ccccc4)C(C)(C)[C@@H]3CC[C@]12C
BGC-823
  IC50: > 50 µM
HepG2
  IC50: > 50 µM
PC-3
  IC50: > 50 µM
MCF7
  IC50: > 50 µM
DU-145
  IC50: > 50 µM

## COC(C)(C)CCC[C@@](C)(O)[C@H]1CC[C@]2(C)[C@@H]1[C@H](O)C[C@@H]1[C@@]3(C)CC[C@H](O)C(C)(C)[C@@H]3CC[C@]12C
BGC-823
  IC50: 36 µM
HepG2
  IC50: 35.9 µM
PC-3
  IC50: 39.5 µM
MCF7
  IC50: 31.3 µM
DU-145
  IC50: 40.7 µM

## COC(C)(C)CCC[C@@](C)(O)[C@H]1CC[C@]2(C)[C@@H]1[C@H](OC(=O)/C=C/c1ccc(F)cc1)C[C@@H]1[C@@]3(C)CC[C@H](OC(=O)/C=C/c4ccc(F)cc4)C(C)(C)[C@@H]3CC[C@]12C
BGC-823
  IC50: > 50 µM
HepG2
  IC50: 41.8 µM
PC-3
  IC50: > 50 µM
MCF7
  IC50: > 50 µM
DU-145
  IC50: 34.6 µM

## COC(C)(C)CCC[C@@](C)(O)[C@H]1CC[C@]2(C)[C@@H]1[C@H](O)C[C@@H]1[C@@]3(C)CC[C@H](OC(=O)/C=C/c4ccccc4)C(C)(C)[C@@H]3CC[C@]12C
BGC-823
  IC50: 28.7 µM
HepG2
  IC50: 26.4 µM
PC-3
  IC50: 37.2 µM
MCF7
  IC50: 35 µM
DU-145
  IC50: 40.1 µM

## COC(C)(C)CCC[C@@](C)(O)[C@H]1CC[C@]2(C)[C@@H]1[C@H](OC(=O)c1cc(F)ccc1Br)C[C@@H]1[C@@]3(C)CC[C@H](OC(=O)c4cc(F)ccc4Br)C(C)(C)[C@@H]3CC[C@]12C
BGC-823
  IC50: > 50 µM
HepG2
  IC50: > 50 µM
PC-3
  IC50: > 50 µM
MCF7
  IC50: > 50 µM
DU-145
  IC50: > 50 µM

## COC(C)(C)CCC[C@@](C)(O)[C@H]1CC[C@]2(C)[C@@H]1[C@H](O)C[C@@H]1[C@@]3(C)CC[C@H](OC(=O)c4ccc(I)cc4)C(C)(C)[C@@H]3CC[C@]12C
BGC-823
  IC50: > 50 µM
HepG2
  IC50: > 50 µM
PC-3
  IC50: > 50 µM
MCF7
  IC50: 46.3 µM
DU-145
  IC50: 31.8 µM
